The record followed here is ChEMBL document CHEMBL1201862, “PubChem BioAssay data set” (2004).

Calls of active or inactive are those of the source.

Test [1] can be described thus: HepG2 cell cytotoxicity, dose response, cytotoxicity control, plate reader, cherry-pick, antagonist series (AID 743416). It counts as functional, cell-based.
Test [2] addresses T1, DNA repair and recombination protein RAD54-like (Homo sapiens, UniProt Q92698).
T1 sequence (Q92698 whole entry): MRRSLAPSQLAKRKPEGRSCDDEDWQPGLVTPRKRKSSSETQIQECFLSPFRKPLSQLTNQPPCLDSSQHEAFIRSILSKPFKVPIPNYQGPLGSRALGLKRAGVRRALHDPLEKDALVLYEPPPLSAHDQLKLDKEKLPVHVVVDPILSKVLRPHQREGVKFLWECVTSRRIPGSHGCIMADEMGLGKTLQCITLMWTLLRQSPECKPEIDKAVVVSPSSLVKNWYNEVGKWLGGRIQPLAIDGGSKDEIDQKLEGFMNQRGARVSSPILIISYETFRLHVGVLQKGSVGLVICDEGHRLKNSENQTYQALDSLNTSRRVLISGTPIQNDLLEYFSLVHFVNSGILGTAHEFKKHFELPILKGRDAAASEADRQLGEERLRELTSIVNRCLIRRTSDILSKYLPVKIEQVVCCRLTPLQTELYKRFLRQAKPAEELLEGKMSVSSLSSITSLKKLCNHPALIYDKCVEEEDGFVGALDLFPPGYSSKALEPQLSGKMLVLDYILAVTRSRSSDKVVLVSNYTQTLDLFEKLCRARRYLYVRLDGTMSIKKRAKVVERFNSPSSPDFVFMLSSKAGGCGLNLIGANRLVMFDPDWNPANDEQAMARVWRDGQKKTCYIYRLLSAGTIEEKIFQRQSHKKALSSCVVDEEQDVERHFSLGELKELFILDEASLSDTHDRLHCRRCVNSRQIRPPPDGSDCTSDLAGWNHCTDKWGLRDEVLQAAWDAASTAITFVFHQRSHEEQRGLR
Description: inhibitors of human RAD54 branch migration, confirmation, biochemical, fluorescence, cherry-picked samples, dose series (AID 651657). It counts as functional.

A short description of test [3]: A549 cell cytotoxicity, dose response, cytotoxicity control, plate reader, cherry-pick, antagonist series (AID 743412). It counts as functional, cell-based.
Test [4] concerns the target 5-hydroxytryptamine receptor 5A (Homo sapiens, UniProt P47898). The test can be described thus: Counterscreen for agonists of OPRM1-OPRD1 heterodimerization: luminescence-based cell-based high throughput dose response assay to identify agonists of 5-hydroxytryptamine (serotonin) 5A receptor (HTR5A). [Related pubchem assays (depositor defined):AID504326, AID504355, AID504692, AID504904, AID504905]. It counts as functional. Background: A counterscreen serves to expose hits that act by an unwanted route or on another target.

The target of test [5] is T2, Sentrin-specific protease 6 (Homo sapiens, UniProt Q9GZR1).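 Also: Luminescence-based dose-response confirmatory assay of SENP6 inhibition, following up an ultra-high-throughput screen.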
T2 sequence (Q9GZR1 whole entry): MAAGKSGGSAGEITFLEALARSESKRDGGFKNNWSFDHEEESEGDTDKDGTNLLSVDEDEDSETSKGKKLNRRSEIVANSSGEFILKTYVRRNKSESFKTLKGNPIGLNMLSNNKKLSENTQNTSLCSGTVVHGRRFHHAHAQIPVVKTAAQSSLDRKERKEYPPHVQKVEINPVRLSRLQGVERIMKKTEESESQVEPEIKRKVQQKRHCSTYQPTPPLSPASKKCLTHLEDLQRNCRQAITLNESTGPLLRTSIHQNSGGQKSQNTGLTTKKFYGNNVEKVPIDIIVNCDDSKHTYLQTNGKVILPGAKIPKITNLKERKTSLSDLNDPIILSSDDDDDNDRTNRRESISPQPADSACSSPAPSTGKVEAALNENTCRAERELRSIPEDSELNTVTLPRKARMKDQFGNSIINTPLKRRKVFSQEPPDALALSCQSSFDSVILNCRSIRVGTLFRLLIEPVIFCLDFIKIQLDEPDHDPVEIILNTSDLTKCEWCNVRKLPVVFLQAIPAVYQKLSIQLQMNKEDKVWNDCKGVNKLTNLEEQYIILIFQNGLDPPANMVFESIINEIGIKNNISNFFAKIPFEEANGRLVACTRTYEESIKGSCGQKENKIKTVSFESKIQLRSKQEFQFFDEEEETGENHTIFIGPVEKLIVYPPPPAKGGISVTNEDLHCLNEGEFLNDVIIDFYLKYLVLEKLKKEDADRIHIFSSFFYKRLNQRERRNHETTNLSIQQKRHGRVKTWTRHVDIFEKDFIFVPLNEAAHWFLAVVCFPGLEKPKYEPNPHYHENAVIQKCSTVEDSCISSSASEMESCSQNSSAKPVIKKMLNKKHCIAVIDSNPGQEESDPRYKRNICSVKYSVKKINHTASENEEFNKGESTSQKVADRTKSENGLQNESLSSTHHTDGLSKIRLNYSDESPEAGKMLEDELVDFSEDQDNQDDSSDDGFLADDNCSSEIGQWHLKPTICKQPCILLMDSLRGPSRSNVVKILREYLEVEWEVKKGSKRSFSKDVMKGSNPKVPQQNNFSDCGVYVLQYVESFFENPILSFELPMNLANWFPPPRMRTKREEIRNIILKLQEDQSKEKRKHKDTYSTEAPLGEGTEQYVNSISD
It counts as functional.

In test [6] the target is Mast/stem cell growth factor receptor Kit (Homo sapiens, UniProt P10721). It counts as functional.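 Also: KIT entry within a kinase panel assay.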
Chain of Mast/stem cell growth factor receptor Kit (P10721 whole entry, the tested form may be a part): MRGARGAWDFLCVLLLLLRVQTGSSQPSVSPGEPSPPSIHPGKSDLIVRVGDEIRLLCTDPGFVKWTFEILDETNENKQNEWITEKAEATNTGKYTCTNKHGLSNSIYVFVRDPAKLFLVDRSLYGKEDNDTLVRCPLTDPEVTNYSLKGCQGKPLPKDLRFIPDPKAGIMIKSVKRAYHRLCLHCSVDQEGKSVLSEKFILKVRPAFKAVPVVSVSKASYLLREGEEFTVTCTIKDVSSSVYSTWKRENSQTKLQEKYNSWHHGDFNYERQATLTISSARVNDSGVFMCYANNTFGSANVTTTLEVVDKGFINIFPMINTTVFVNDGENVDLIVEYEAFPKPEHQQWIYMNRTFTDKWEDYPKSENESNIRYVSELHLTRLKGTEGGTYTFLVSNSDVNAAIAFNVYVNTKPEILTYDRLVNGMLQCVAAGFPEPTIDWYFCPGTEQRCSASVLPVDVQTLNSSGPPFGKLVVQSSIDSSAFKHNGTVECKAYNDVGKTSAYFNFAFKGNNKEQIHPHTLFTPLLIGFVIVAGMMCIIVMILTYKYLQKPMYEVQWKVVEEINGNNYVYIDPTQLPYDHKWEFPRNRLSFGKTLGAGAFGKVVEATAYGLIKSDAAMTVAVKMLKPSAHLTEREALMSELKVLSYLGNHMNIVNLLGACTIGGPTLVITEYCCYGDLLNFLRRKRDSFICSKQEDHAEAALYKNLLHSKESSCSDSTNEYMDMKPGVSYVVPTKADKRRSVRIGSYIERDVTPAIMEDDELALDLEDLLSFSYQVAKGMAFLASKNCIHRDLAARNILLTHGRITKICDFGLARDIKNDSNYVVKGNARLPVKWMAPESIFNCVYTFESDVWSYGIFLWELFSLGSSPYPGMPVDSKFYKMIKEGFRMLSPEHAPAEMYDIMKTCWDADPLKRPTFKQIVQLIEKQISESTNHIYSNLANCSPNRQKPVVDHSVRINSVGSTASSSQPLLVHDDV
In test [7] the target is PAS domain-containing serine/threonine-protein kinase (Homo sapiens, UniProt Q96RG2). It counts as functional.
Test [8] addresses Receptor-type tyrosine-protein kinase FLT3 (Homo sapiens, UniProt P36888). It counts as functional.
Test [9] concerns the target Casein kinase I isoform alpha (Homo sapiens, UniProt P48729). It counts as functional.
The target of test [10] is Dual specificity protein kinase CLK2 (Homo sapiens, UniProt P49760). It counts as functional.
Test [11] deals with Mitogen-activated protein kinase kinase kinase kinase 2 (Homo sapiens, UniProt Q12851). It counts as functional.
Chain of Mitogen-activated protein kinase kinase kinase kinase 2 (Q12851 whole entry): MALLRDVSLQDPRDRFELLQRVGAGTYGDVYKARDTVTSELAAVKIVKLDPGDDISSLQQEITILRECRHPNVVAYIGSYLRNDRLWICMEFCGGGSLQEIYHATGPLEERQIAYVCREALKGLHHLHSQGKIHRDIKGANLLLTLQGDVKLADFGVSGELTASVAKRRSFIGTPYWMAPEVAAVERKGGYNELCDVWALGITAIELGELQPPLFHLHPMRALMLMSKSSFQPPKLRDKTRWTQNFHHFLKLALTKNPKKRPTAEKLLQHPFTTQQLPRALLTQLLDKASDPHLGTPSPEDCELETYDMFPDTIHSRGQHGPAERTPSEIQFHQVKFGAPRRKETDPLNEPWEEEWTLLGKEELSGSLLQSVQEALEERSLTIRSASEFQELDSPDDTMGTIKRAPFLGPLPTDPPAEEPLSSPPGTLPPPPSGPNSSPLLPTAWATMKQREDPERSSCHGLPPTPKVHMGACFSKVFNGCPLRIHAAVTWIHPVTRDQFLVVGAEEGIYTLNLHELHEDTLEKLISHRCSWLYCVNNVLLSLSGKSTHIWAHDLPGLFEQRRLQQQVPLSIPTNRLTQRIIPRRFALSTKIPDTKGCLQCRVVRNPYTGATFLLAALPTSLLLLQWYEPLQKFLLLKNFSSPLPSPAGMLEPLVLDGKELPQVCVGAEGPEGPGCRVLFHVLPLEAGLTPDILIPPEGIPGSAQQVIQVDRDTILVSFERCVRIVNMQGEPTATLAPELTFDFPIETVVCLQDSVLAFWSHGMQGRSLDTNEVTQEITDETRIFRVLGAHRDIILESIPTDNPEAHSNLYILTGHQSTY
The target of test [12] is Serine/threonine-protein kinase N2 (Homo sapiens, UniProt Q16513). It counts as functional.
In test [13] the target is Vascular endothelial growth factor receptor 3 (Homo sapiens, UniProt P35916). It counts as functional.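 Also: value from a kinome-wide profiling panel, with FLT4 as the panel member.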
Test [14] addresses Calcium/calmodulin-dependent protein kinase type II subunit beta (Homo sapiens, UniProt Q13554). It counts as functional.
Test [15] has as its target Serine/threonine-protein kinase D3 (Homo sapiens, UniProt O94806). It counts as functional.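 Also: determined within a kinase panel screen, with PRKCN as the panel member.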
Test [16] deals with RAC-alpha serine/threonine-protein kinase (Homo sapiens, UniProt P31749). Format: functional.
Chain of RAC-alpha serine/threonine-protein kinase (P31749 whole entry): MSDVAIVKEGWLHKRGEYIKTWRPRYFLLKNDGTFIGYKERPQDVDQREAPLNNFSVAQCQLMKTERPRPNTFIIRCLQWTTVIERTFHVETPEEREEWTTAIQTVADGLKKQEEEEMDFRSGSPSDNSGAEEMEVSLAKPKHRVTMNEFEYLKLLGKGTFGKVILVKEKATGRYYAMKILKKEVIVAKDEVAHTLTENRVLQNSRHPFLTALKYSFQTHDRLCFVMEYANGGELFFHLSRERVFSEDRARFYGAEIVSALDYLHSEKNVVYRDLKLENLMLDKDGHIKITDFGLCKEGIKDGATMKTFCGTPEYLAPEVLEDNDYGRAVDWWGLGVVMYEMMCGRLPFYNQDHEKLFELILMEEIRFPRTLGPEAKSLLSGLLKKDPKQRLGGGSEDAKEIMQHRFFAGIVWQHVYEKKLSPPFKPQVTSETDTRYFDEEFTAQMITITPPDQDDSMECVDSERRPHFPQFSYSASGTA
The target in test [17] is Inhibitor of nuclear factor kappa-B kinase subunit alpha (Homo sapiens, UniProt O15111). Format: functional.
Chain of Inhibitor of nuclear factor kappa-B kinase subunit alpha (O15111 whole entry): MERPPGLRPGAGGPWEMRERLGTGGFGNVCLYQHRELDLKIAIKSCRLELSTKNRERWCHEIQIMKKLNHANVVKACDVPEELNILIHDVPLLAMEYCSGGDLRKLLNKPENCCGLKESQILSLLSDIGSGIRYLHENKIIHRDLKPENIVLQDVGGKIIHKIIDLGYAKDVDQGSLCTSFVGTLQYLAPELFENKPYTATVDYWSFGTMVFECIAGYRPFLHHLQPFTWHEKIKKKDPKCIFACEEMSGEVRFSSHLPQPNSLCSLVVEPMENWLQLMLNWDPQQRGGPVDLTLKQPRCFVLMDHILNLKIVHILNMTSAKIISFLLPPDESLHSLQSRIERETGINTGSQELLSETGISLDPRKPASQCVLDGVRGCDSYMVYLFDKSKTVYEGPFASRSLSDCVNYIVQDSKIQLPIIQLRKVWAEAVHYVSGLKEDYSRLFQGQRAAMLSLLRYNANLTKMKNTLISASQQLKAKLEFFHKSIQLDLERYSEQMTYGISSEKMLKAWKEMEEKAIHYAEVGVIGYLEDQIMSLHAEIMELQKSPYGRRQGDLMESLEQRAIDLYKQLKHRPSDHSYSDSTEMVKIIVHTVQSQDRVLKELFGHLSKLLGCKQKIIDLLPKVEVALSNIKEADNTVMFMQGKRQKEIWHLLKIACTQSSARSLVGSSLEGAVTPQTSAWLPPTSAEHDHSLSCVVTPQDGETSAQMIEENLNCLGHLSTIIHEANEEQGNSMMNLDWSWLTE
Test [18] addresses Serine/threonine-protein kinase MRCK alpha (Homo sapiens, UniProt Q5VT25). It counts as functional.
For test [19], the target named is Serine/threonine-protein kinase Nek4 (Homo sapiens, UniProt P51957). It counts as functional.
Chain of Serine/threonine-protein kinase Nek4 (P51957 whole entry): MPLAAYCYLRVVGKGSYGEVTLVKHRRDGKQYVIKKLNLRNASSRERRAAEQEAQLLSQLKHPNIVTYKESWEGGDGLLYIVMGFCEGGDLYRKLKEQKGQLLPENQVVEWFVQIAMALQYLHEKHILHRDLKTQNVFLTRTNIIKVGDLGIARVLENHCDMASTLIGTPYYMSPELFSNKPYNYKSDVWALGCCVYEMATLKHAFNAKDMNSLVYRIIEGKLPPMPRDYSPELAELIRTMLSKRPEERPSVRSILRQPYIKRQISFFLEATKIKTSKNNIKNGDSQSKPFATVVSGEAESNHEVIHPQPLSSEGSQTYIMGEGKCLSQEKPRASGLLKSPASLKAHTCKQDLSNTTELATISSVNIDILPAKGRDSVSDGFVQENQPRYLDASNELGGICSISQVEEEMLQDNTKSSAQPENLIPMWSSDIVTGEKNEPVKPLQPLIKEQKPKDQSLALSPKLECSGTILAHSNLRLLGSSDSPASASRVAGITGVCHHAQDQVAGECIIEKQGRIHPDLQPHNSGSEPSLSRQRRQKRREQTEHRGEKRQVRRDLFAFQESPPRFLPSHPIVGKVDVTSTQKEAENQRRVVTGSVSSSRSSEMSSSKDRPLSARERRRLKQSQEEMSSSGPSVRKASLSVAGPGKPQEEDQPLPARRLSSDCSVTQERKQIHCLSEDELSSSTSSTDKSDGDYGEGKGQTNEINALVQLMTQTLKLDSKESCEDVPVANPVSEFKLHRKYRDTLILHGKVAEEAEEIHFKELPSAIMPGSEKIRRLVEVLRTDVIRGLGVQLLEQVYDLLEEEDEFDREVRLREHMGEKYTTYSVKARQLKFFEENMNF

Chain of Receptor-type tyrosine-protein kinase FLT3 (P36888 whole entry, canonical isoform): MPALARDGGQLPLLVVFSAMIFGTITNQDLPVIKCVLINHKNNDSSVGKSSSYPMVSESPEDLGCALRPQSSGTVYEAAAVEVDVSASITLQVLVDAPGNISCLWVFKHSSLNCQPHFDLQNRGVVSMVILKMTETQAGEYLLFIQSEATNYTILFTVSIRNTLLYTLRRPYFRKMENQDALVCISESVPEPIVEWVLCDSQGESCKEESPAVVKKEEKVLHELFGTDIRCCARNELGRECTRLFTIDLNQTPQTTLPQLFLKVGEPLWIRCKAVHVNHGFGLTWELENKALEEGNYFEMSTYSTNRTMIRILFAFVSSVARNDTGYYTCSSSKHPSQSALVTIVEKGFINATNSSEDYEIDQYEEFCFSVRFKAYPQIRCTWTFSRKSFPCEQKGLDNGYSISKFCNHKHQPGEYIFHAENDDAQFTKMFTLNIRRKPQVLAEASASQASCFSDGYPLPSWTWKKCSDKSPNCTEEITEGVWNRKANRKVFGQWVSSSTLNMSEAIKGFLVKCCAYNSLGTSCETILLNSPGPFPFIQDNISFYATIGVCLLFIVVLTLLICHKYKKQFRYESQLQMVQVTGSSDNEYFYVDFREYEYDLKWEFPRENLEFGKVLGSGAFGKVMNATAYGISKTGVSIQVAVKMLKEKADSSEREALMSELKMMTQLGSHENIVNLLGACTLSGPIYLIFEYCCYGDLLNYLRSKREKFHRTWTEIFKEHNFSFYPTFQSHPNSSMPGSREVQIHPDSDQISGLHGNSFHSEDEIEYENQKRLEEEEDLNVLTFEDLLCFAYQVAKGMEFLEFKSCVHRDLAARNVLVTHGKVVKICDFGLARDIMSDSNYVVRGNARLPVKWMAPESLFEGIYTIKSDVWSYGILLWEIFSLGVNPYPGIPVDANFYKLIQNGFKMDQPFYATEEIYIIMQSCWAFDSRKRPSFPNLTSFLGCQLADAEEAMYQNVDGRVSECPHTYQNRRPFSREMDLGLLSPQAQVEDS

For `CCCc1nc2c(=O)n(C)c(=O)nc-2n(C)n1`, the values for the half-maximal activity concentration (AC50) in test [1], in test [2] and in test [3] were 3.39 µM (active), 1.13 µM (active) and 6.05 µM (active), respectively. Moreover, the EC50 (usually the midpoint of the concentration-response curve) in test [4] was > 92.5 µM (inactive).

Take `CC(=O)c1ccc(NC2=C(N3CCOCC3)C(=O)c3ccccc3C2=O)cc1`: in [5], the IC50 (usually the concentration that gives 50% inhibition) was 11.6 µM (active).

As for `COc1cc2ncn(-c3cc(OCc4ccccc4C(F)(F)F)c(C(N)=O)s3)c2cc1OC` [GW843682X], the Ki – broadly, the equilibrium dissociation constant of an inhibitor or competing ligand from its target – was 0.126 µM (active) in [6]; > 1.58 µM (inactive) in [7]; 0.0501 µM (active) in test [8]; > 6.31 µM (inactive) in test [9]; > 7.94 µM (inactive) in test [10]; > 6.31 µM (inactive) in [11]. In addition, the Ki in test [12] was > 7.94 µM (inactive); in test [13], 0.1 µM (active); in [14] it was > 7.94 µM (inactive); in [15], > 10 µM (inactive); in test [16], > 7.94 µM (inactive); in test [17] it was > 3.98 µM (inactive). The Ki in test [18] was > 10 µM (inactive); in [19] it was > 6.31 µM (inactive).
